Experimental findings from US7799809B2, “Carboxamide compounds and their use as calpain inhibitors” (Abbott GmbH & Co. KG, priority 2006, dated 2010) are described below.

Common to all, as to format: biochemical
Assay [1] concerns the target T1, cathepsin K (Homo sapiens, UniProt P43235).
T1 construct: purchased Calbiochem 342001; host or cells: E. coli
T1 sequence (P43235 115-329): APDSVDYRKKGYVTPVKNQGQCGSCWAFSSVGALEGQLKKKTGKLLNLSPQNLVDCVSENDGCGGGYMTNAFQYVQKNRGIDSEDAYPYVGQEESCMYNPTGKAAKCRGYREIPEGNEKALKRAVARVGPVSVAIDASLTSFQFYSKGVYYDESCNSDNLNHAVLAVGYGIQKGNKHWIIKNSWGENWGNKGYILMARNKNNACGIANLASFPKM
Kind of assay: Cathepsin K enzyme inhibition in vitro (kinetic fluorescence assay). To be noted: cathepsin K activated from recombinant human procathepsin K vs calpain I.

In assay [2] the target is T2, cathepsin B (Homo sapiens, UniProt P07858).
T2 construct: cathepsin B—isolated from human liver (Calbiochem #219362); purchased Calbiochem 219362; host or cells: human liver (tissue-derived)
The experiment in a line: Cathepsin B enzyme inhibition in vitro (kinetic fluorescence assay). The settings on record: cathepsin B isolated from human liver vs calpain I. The method, boiled down: (§1)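 Cathepsin B (0.25 nM, human liver) with 100 μM Z-Phe-Arg-AMC; L (1 nM, human liver) with 2 μM Z-Phe-Arg-AMC; S (0.5 nM, recombinant) with 20 μM Z-Val-Val-Arg-AMC. pH 6.0 MES buffer, 2.5 mM L-cysteine, room temperature. Kinetic fluorescence (ex 390/em 460 nm); apparent Ki from IC50 by Cheng-Prusoff.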

The target in assay [3] is T3, cathepsin S (Homo sapiens, UniProt P25774).
T3 construct: purchased Calbiochem 219343; host or cells: E. coli
T3 sequence (P25774 115-331): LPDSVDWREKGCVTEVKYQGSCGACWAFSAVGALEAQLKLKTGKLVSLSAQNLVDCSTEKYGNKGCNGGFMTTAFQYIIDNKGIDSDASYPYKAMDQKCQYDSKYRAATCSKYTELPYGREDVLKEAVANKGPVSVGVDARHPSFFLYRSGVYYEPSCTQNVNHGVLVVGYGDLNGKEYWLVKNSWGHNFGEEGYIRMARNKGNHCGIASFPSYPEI
The experiment in a line: Cathepsin S enzyme inhibition in vitro (kinetic fluorescence assay). To be noted: recombinant human cathepsin S vs calpain I. An outline of the steps:
as §1

The target of assay [4] is T4, cathepsin L (Homo sapiens, UniProt P07711).
T4 construct: cathepsin L—isolated from human liver (Calbiochem #219402); purchased Calbiochem 219402; host or cells: human liver (tissue-derived)
T4 sequence (P07711 114-333): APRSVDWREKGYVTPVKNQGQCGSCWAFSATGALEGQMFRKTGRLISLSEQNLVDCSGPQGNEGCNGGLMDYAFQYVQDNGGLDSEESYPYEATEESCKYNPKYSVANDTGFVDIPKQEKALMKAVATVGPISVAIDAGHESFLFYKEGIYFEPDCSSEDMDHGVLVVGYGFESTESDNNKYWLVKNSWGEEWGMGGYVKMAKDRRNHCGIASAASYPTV
The experiment in a line: Cathepsin L enzyme inhibition in vitro (kinetic fluorescence assay). The settings on record: cathepsin L isolated from human liver vs calpain I. An outline of the steps: as §1

Structures are written as SMILES.

As to `COc1ccc(CC(NC(=O)c2cccnc2-n2ccc(-c3ccccc3)n2)C(=O)C(N)=O)cc1` (stereo not shown) [Example 80, N-[3-Amino-1-(4-methoxybenzyl)-2,3-dioxopropyl]-2-(3-phenyl-1H-pyrazol-1-yl)nicotinamide], the “Sel cat. K: Ki(cathepsin K)/Ki(calpain) ratio” value in assay [1] is reported as “+ (+ means 10≦Ki(cathepsin K)/Ki(calpain)<30)”. In addition, the “Sel cat. B: Ki(cathepsin B)/Ki(calpain) ratio” value in assay [2] is recorded as “++ (++ means a Ki(cathepsin B)/Ki(calpain) ratio of ≧30)”. Also, the “Sel cat. S: Ki(cathepsin S)/Ki(calpain) ratio” value in assay [3] was “++ (++ means a Ki(cathepsin S)/Ki(calpain) ratio of ≧100)”. Moreover, the “Sel cat. L: Ki(cathepsin L)/Ki(calpain) ratio” value in assay [4] is reported as “++ (++ means a Ki(cathepsin L)/Ki(calpain) ratio of ≧50)”.
Take `COc1ccc(CC(NC(=O)c2cccnc2-n2ccc(-c3ccc(F)cc3)n2)C(=O)C(N)=O)cc1` (stereo not shown) [Example 81, N-[3-Amino-1-(4-methoxybenzyl)-2,3-dioxopropyl]-2-[3-(4-fluorophenyl)-1H-pyrazol-1-yl]nicotinamide]: the “Sel cat. K: Ki(cathepsin K)/Ki(calpain) ratio” value in assay [1] is recorded as “+ (+ means 10≦Ki(cathepsin K)/Ki(calpain)<30)”. In addition, the “Sel cat. B: Ki(cathepsin B)/Ki(calpain) ratio” value in assay [2] was “+ (+ means 10≦Ki(cathepsin B)/Ki(calpain)<30)”. For the same molecule, the “Sel cat. S: Ki(cathepsin S)/Ki(calpain) ratio” value in assay [3] is “++ (++ means a Ki(cathepsin S)/Ki(calpain) ratio of ≧100)”. In assay [4], the “Sel cat. L: Ki(cathepsin L)/Ki(calpain) ratio” value was “++ (++ means a Ki(cathepsin L)/Ki(calpain) ratio of ≧50)”.
As for `NC(=O)C(=O)C(Cc1ccccc1)NC(=O)c1cccnc1-n1ccc(-c2cccc(C(F)(F)F)c2)n1` (stereo not shown) [Example 83, N-(3-Amino-1-benzyl-2,3-dioxopropyl)-2-{3-[3-(trifluoromethyl)phenyl]-1H-pyrazol-1-yl}nicotinamide], in assay [1], the “Sel cat. K: Ki(cathepsin K)/Ki(calpain) ratio” value is recorded as “++ (++ means a Ki(cathepsin K)/Ki(calpain) ratio of ≧30)”. The “Sel cat. B: Ki(cathepsin B)/Ki(calpain) ratio” value in assay [2] is reported as “+ (+ means 10≦Ki(cathepsin B)/Ki(calpain)<30)”. Besides, in assay [3], the “Sel cat. S: Ki(cathepsin S)/Ki(calpain) ratio” value is given as “++ (++ means a Ki(cathepsin S)/Ki(calpain) ratio of ≧100)”. In addition, the “Sel cat. L: Ki(cathepsin L)/Ki(calpain) ratio” value in assay [4] is on record as “++ (++ means a Ki(cathepsin L)/Ki(calpain) ratio of ≧50)”.
Taken in the same sequence, the figures for `NC(=O)C(=O)C(Cc1ccccc1)NC(=O)c1cccnc1-n1ccc(-c2c(F)cccc2F)n1` (stereo not shown) [Example 85, N-[3-Amino-2,3-dioxo-1-(phenylmethyl)propyl]-2-[3-(2,6-difluorophenyl)-1H-pyrazol-1-yl]pyridine-3-carboxamide] were “++ (++ means a Ki(cathepsin K)/Ki(calpain) ratio of ≧30)”, “+ (+ means 10≦Ki(cathepsin B)/Ki(calpain)<30)”, “++ (++ means a Ki(cathepsin S)/Ki(calpain) ratio of ≧100)” and “++ (++ means a Ki(cathepsin L)/Ki(calpain) ratio of ≧50)”.
With `CC(C)c1ccc(-c2ccn(-c3ncccc3C(=O)NC(Cc3ccccc3)C(=O)C(N)=O)n2)cc1` (stereo not shown) [Example 87, N-[3-Amino-2,3-dioxo-1-(phenylmethyl)propyl]-2-{3-[4-(1-methylethyl)phenyl]-1H-pyrazol-1-yl}pyridine-3-carboxamide], the “Sel cat. K: Ki(cathepsin K)/Ki(calpain) ratio” value in assay [1] is on record as “++ (++ means a Ki(cathepsin K)/Ki(calpain) ratio of ≧30)”. Besides, in assay [2], the “Sel cat. B: Ki(cathepsin B)/Ki(calpain) ratio” value is reported as “++ (++ means a Ki(cathepsin B)/Ki(calpain) ratio of ≧30)”. Further, the “Sel cat. S: Ki(cathepsin S)/Ki(calpain) ratio” value in assay [3] is on record as “++ (++ means a Ki(cathepsin S)/Ki(calpain) ratio of ≧100)”. For the same molecule, in assay [4], the “Sel cat. L: Ki(cathepsin L)/Ki(calpain) ratio” value is listed as “++ (++ means a Ki(cathepsin L)/Ki(calpain) ratio of ≧50)”.
Taken in the same sequence, the figures for `Cl.NC(=O)C(=O)C(Cc1cccnc1)NC(=O)c1cccnc1-n1ccc(-c2ccccc2)n1` (stereo not shown) [Example 88, N-[3-Amino-2,3-dioxo-1-(pyridin-3-ylmethyl)propyl]-2-(3-phenyl-1H-pyrazol-1-yl)pyridine-3-carboxamide hydrochloride] were “++ (++ means a Ki(cathepsin K)/Ki(calpain) ratio of ≧30)”, “+ (+ means 10≦Ki(cathepsin B)/Ki(calpain)<30)”, “++ (++ means a Ki(cathepsin S)/Ki(calpain) ratio of ≧100)” and “++ (++ means a Ki(cathepsin L)/Ki(calpain) ratio of ≧50)”.
For the molecule `COc1ccccc1-c1ccn(-c2ncccc2C(=O)NC(Cc2ccccc2)C(=O)C(N)=O)n1` (stereo not shown) [Example 90, N-[3-Amino-2,3-dioxo-1-(phenylmethyl)propyl]-2-{3-[2-(methyloxy)phenyl]-1H-pyrazol-1-yl}pyridine-3-carboxamide], the “Sel cat. K: Ki(cathepsin K)/Ki(calpain) ratio” value in assay [1] is reported as “+ (+ means 10≦Ki(cathepsin K)/Ki(calpain)<30)”. Moreover, the “Sel cat. B: Ki(cathepsin B)/Ki(calpain) ratio” value in assay [2] is recorded as “++ (++ means a Ki(cathepsin B)/Ki(calpain) ratio of ≧30)”. For the same molecule, the “Sel cat. S: Ki(cathepsin S)/Ki(calpain) ratio” value in assay [3] was “++ (++ means a Ki(cathepsin S)/Ki(calpain) ratio of ≧100)”. In addition, the “Sel cat. L: Ki(cathepsin L)/Ki(calpain) ratio” value in assay [4] is “++ (++ means a Ki(cathepsin L)/Ki(calpain) ratio of ≧50)”.
Taken in the same sequence, the figures for `NC(=O)C(=O)C(Cc1ccccc1)NC(=O)c1cccnc1-n1ccc(-c2cc(F)cc(F)c2)n1` (stereo not shown) [Example 91, N-[3-Amino-2,3-dioxo-1-(phenylmethyl)propyl]-2-[3-(3,5-difluorophenyl)-1H-pyrazol-1-yl]pyridine-3-carboxamide] were “+ (+ means 10≦Ki(cathepsin K)/Ki(calpain)<30)”, “++ (++ means a Ki(cathepsin B)/Ki(calpain) ratio of ≧30)”, “++ (++ means a Ki(cathepsin S)/Ki(calpain) ratio of ≧100)” and “++ (++ means a Ki(cathepsin L)/Ki(calpain) ratio of ≧50)”.
For `COc1ccc(CC(NC(=O)c2cccnc2-n2ccc(-c3ccccc3F)n2)C(=O)C(N)=O)cc1` (stereo not shown) [Example 92, N-(3-Amino-1-{[4-(methyloxy)phenyl]methyl}-2,3-dioxopropyl)-2-[3-(2-fluorophenyl)-1H-pyrazol-1-yl]pyridine-3-carboxamide] the same measures were “+ (+ means 10≦Ki(cathepsin K)/Ki(calpain)<30)”, “++ (++ means a Ki(cathepsin B)/Ki(calpain) ratio of ≧30)”, “++ (++ means a Ki(cathepsin S)/Ki(calpain) ratio of ≧100)” and “++ (++ means a Ki(cathepsin L)/Ki(calpain) ratio of ≧50)”.
For `Cc1ccccc1-c1ccn(-c2ncccc2C(=O)NC(Cc2ccccc2)C(=O)C(N)=O)n1` (stereo not shown) [Example 93, N-[3-Amino-2,3-dioxo-1-(phenylmethyl)propyl]-2-[3-(2-methylphenyl)-1H-pyrazol-1-yl]pyridine-3-carboxamide] the same measures were “+ (+ means 10≦Ki(cathepsin K)/Ki(calpain)<30)”, “++ (++ means a Ki(cathepsin B)/Ki(calpain) ratio of ≧30)”, “++ (++ means a Ki(cathepsin S)/Ki(calpain) ratio of ≧100)” and “++ (++ means a Ki(cathepsin L)/Ki(calpain) ratio of ≧50)”.
For the molecule `NC(=O)C(=O)C(Cc1ccccc1)NC(=O)c1cccnc1-n1ccc(-c2ccc(F)cc2F)n1` (stereo not shown) [Example 94, N-[3-Amino-2,3-dioxo-1-(phenylmethyl)propyl]-2-[3-(2,4-difluorophenyl)-1H-pyrazol-1-yl]pyridine-3-carboxamide], the “Sel cat. K: Ki(cathepsin K)/Ki(calpain) ratio” value in assay [1] is reported as “+ (+ means 10≦Ki(cathepsin K)/Ki(calpain)<30)”. In addition, the “Sel cat. B: Ki(cathepsin B)/Ki(calpain) ratio” value in assay [2] is “++ (++ means a Ki(cathepsin B)/Ki(calpain) ratio of ≧30)”. In addition, the “Sel cat. S: Ki(cathepsin S)/Ki(calpain) ratio” value in assay [3] is listed as “++ (++ means a Ki(cathepsin S)/Ki(calpain) ratio of ≧100)”. Further, in assay [4], the “Sel cat. L: Ki(cathepsin L)/Ki(calpain) ratio” value is “++ (++ means a Ki(cathepsin L)/Ki(calpain) ratio of ≧50)”.
For `NC(=O)C(=O)C(Cc1ccccc1)NC(=O)c1cccnc1-n1ccc(-c2c(Cl)cccc2Cl)n1` (stereo not shown) [Example 95, N-[3-Amino-2,3-dioxo-1-(phenylmethyl)propyl]-2-[3-(2,6-dichlorophenyl)-1H-pyrazol-1-yl]pyridine-3-carboxamide], the “Sel cat. K: Ki(cathepsin K)/Ki(calpain) ratio” value in assay [1] is given as “++ (++ means a Ki(cathepsin K)/Ki(calpain) ratio of ≧30)”. In addition, the “Sel cat. B: Ki(cathepsin B)/Ki(calpain) ratio” value in assay [2] is “++ (++ means a Ki(cathepsin B)/Ki(calpain) ratio of ≧30)”. Also, the “Sel cat. S: Ki(cathepsin S)/Ki(calpain) ratio” value in assay [3] is on record as “++ (++ means a Ki(cathepsin S)/Ki(calpain) ratio of ≧100)”. In addition, in assay [4], the “Sel cat. L: Ki(cathepsin L)/Ki(calpain) ratio” value is “++ (++ means a Ki(cathepsin L)/Ki(calpain) ratio of ≧50)”.
Consider `NC(=O)C(=O)C(Cc1ccccc1)NC(=O)c1cccnc1-n1ccc(-c2cccc(OCc3ccccc3)c2)n1` (stereo not shown) [Example 96, N-[3-Amino-2,3-dioxo-1-(phenylmethyl)propyl]-2-(3-{3-[(phenylmethyl)oxy]phenyl}-1H-pyrazol-1-yl)pyridine-3-carboxamide], for which, in assay [1], the “Sel cat. K: Ki(cathepsin K)/Ki(calpain) ratio” value is “++ (++ means a Ki(cathepsin K)/Ki(calpain) ratio of ≧30)”. The “Sel cat. B: Ki(cathepsin B)/Ki(calpain) ratio” value in assay [2] was “++ (++ means a Ki(cathepsin B)/Ki(calpain) ratio of ≧30)”. In addition, the “Sel cat. S: Ki(cathepsin S)/Ki(calpain) ratio” value in assay [3] is reported as “++ (++ means a Ki(cathepsin S)/Ki(calpain) ratio of ≧100)”. Also, the “Sel cat. L: Ki(cathepsin L)/Ki(calpain) ratio” value in assay [4] was “++ (++ means a Ki(cathepsin L)/Ki(calpain) ratio of ≧50)”.
